From patent US20150368242A1, “NOVEL TETRAHYDROPYRIDOPYRIMIDINONE DERIVATIVE” (Ajinomoto Co., Inc., priority 2013, published 2015)
Counter-ions that a name gives are not always drawn. Like-named read-outs stand apart in the source and are kept apart here.

Target: T1, recombinant human MGAT2 enzyme (Homo sapiens, UniProt Q3SYC2)
T1 construct: made in house; host or cells: CHO-K1 (Jump-In CHO-K1 Kit, Life Technologies); microsomal fraction used as the enzyme solution
Test: Test for human MGAT2 activity inhibitory action (14C-oleoyl CoA, recombinant enzyme microsomes)
Format: biochemical
Set-up: key to Potency relative to Comparative Example 1 (higher = more potent): % inhibition = {1−(C−B)/(A−B)}×100, B = 10 μM Comparative Example 1
Details: for IC50: read-out: IC50
Procedure: The human MGAT2 gene described in Am. J. Physiol. Endocrinol. Metab. 285: E927-E937, 2003 was expressed using Jump-In™ CHO-K1 Kit (Life technologies) as described in the attached manual. The cells were suspended in a buffer containing Tris-hydrochloric acid (pH 7.4) at a final concentration of 1 mM, 1 mM ethylenediaminetetraacetic acid, 1 mM dithiothreitol, 250 mM sucrose, and complete protease inhibitor cocktail (Roche applied Science), and then disrupted using a Teflon homogenizer (AS ONE Corporation), followed by centrifugation at 130 g for 10 minutes. The supernatant was further centrifuged at 100,000 g for 1 hour to obtain a pellet as microsomes containing the recombinant enzyme, and a solution obtained by suspending this pellet at a protein concentration of about 800 to 1900 μg/ml was used as an MGAT recombinant enzyme solution.
To a buffer containing 50 mM Tris-hydrochloric acid (pH 7.4), 6 mM magnesium chloride, and 2 mg/mL bovine serum albumin, a test compound was added, and the final concentration of dimethyl sulfoxide was adjusted to 0.3%. Moreover, 2-monooleoyl glycerol, oleoyl CoA, 1-^14C-oleoyl CoA (Perkin Elmer), and orlistat (SIGMA) were added at final concentrations of 50 μM, 50 μM, 2.2 μM, and 8.3 μM, respectively, followed by incubation at 37° C. for 10 minutes. After 10 minutes, the recombinant human MGAT2 enzyme solution was added at a final concentration of 0.67 μg/mL, and the reaction was started, with the amount of the reaction solution being 150 μl. The reaction was carried out at 37° C. for 30 minutes.
After 30 minutes, the reaction was stopped by adding 300 μl of isopropanol:heptane:water=(80:20:2) to the reaction liquid. Further, 200 μl of heptane and 100 μl of water were added, followed by stirring. Then, 100 μl of the upper layer was transferred to a 96-well plate (Corning), and mixed with 100 μl of liquid scintillator (LumaSafe Plus, Lumac). Then, the ^14C count was quantitatively determined using TopCount NXT™ microplate scintillation luminescence counter (Perkin Elmer).
The ^14C count in a case where no test compound was added was defined as A, the ^14C count in a case where 10 μM of the compound (Comparative Example 1) of Example No. 8 of WO2008/038768 was added was defined as B, and the ^14C count in the case where the test compound was added was taken as C. For this case, {1−(C−B)/(A−B)}×100(%) was calculated as the human MGAT2 activity inhibition ratio of the test compound (shown in the column named vs Comp. Ex. 1 in the following Table). A greater value of the “vs Comparative Example 1” means that the MGAT2 activity inhibitory action of the compound of Example was higher as compared to the MGAT2 activity inhibitory action of the compound of Comparative Example 1 (i.e., the human MGAT2 activity inhibition ratio was higher). […] Since this evaluation test was conducted for two separate groups, the test results of the two groups are shown separately in Table (First Test) and Table 4 (Second Test).
Next, the compounds of Examples 25 to 60 of the present invention were also investigated for their pharmacological action by using the same method as in Examples 1 to 24. […] Note that, a comparative evaluation test against the compound of Comparative Example 1 was conducted for each of the compounds of Examples (in every measurement of the inhibitory activity of the compounds of Examples 25 to 60, the inhibitory activity of the compound of Comparative Example 1 was measured). The 50% inhibition concentrations of Comparative Example 1 in the measurement of the inhibitory activities of the compounds of Examples 25 to 60 were shown in Table 5 as “IC50 (nM) of Comparative Example 1.”

[1] = Table 5, Examples 25 to 60, same method
[2] = Table 5, relative to Comparative Example 1 measured in the same run
[3] = First Test (Table 3), relative to Comparative Example 1, greater value = higher inhibitory action
[4] = Second Test (Table 4), relative to Comparative Example 1

T1 sequence (Q3SYC2 whole entry): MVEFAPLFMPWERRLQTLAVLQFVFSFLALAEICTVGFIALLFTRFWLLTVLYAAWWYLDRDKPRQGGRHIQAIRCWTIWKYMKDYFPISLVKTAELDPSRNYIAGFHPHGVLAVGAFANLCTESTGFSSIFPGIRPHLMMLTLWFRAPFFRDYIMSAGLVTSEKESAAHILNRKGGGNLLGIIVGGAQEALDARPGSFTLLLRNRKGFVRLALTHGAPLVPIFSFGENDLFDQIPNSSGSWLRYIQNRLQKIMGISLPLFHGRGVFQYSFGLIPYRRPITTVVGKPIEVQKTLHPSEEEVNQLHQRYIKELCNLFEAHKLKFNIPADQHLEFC

O=C(CCNCc1ccc2c(c1)CCO2)N1CCc2nc(SC3CCC3)n(-c3ccccc3)c(=O)c2C1 [Example 32, 2-cyclobutylsulfanyl-6-[3-(2,6-dihydrobenzofuran-5-ylmethylamino)propanoyl]-3-phenyl-7,8-dihydro-5H-pyrido[4,3-d]pyrimidin-4-one trifluoroacetate]
IC50 [1]: 1.3 nM | Potency relative to Comparative Example 1 (higher = more potent) [2]: 166

O=C(CNCc1ccc(Cl)cc1)N1CCc2nc(SC3CCC3)n(-c3ccccc3)c(=O)c2C1 [Example 3, 6-[2-[(4-chlorophenyl)methylamino]acetyl]-2-cyclobutylsulfanyl-3-phenyl-7,8-dihydro-5H-pyrido[4,3-d]pyrimidin-4-one trifluoroacetate]
IC50 (First Test (Table 3)): 3.7 nM | Potency relative to Comparative Example 1 (higher = more potent) [3]: 60

O=C(CCNCCOc1ccc(F)cc1)N1CCc2nc(SC3CCC3)n(-c3ccccc3)c(=O)c2C1 [Example 46, 2-cyclobutylsulfanyl-6-[3-[2-(4-fluorophenoxy)ethylamino]propanoyl]-3-phenyl-7,8-dihydro-5H-pyrido[4,3-d]pyrimidin-4-one trifluoroacetate]
IC50 [1]: < 1 nM

O=C(CNCCCCCOC1CCC(F)(F)CC1)N1CCc2nc(SC3CCC3)n(-c3ccccc3)c(=O)c2C1 [Example 58, 2-cyclobutylsulfanyl-6-[2-[5-(4,4-difluorocyclohexoxy)pentylamino]acetyl]-3-phenyl-7,8-dihydro-5H-pyrido[4,3-d]pyrimidin-4-one trifluoroacetate]
IC50 [1]: 3.3 nM | Potency relative to Comparative Example 1 (higher = more potent) [2]: 63

O=C(CCNCCc1ccc(O)cc1)N1CCc2nc(SC3CCC3)n(-c3ccccc3)c(=O)c2C1 [Example 30, 2-cyclobutylsulfanyl-6-[3-[2-(4-hydroxyphenyl)ethylamino]propanoyl]-3-phenyl-7,8-dihydro-5H-pyrido[4,3-d]pyrimidin-4-one trifluoroacetate]
IC50 [1]: 3 nM | Potency relative to Comparative Example 1 (higher = more potent) [2]: 69

C[C@@H](NCCC(=O)N1CCc2nc(SC3CCC3)n(-c3ccccc3)c(=O)c2C1)c1ccccc1 [Example 41, 2-cyclobutylsulfanyl-3-phenyl-6-[3-[[(1R)-1-phenylethyl]amino]propanoyl]-7,8-dihydro-5H-pyrido[4,3-d]pyrimidin-4-one trifluoroacetate]
IC50 [1]: 1.1 nM

O=C(CCNCC(O)c1ccccc1)N1CCc2nc(SC3CCC3)n(-c3ccccc3)c(=O)c2C1 (stereo not drawn) [Example 29, 2-cyclobutylsulfanyl-6-[3-[(2-hydroxy-2-phenyl-ethyl)amino]propanoyl]-3-phenyl-7,8-dihydro-5H-pyrido[4,3-d]pyrimidin-4-one trifluoroacetate]
IC50 [1]: 1.5 nM | Potency relative to Comparative Example 1 (higher = more potent) [2]: 138

C[C@H](CNCCC(=O)N1CCc2nc(SC3CCC3)n(-c3ccccc3)c(=O)c2C1)c1ccccc1 [Example 37, 2-cyclobutylsulfanyl-3-phenyl-6-[3-[[(2S)-2-phenylpropyl]amino]propanoyl]-7,8-dihydro-5H-pyrido[4,3-d]pyrimidin-4-one trifluoroacetate]
IC50 [1]: 0.5 nM | Potency relative to Comparative Example 1 (higher = more potent) [2]: 273

[2H]c1c([2H])c([2H])c(C([2H])([2H])NCCC(=O)N2CCc3nc(SC4CCC4)n(-c4ccccc4)c(=O)c3C2)c([2H])c1[2H] [Example 25, 2-cyclobutylsulfanyl-6-[3-[[dideuterio-(2,3,4,5,6-pentadeuteriophenyl)methyl]amino]propanoyl]-3-phenyl-7,8-dihydro-5H-pyrido[4,3-d]pyrimidin-4-one trifluoroacetate]
IC50 [1]: 2.2 nM | Potency relative to Comparative Example 1 (higher = more potent) [2]: 111

O=C(CCNCc1csc2ccccc12)N1CCc2nc(SC3CCC3)n(-c3ccccc3)c(=O)c2C1 [Example 20, 6-[3-(benzothiophen-3-ylmethylamino)propanoyl]-2-cyclobutylsulfanyl-3-phenyl-7,8-dihydro-5H-pyrido[4,3-d]pyrimidin-4-one trifluoroacetate]
IC50 (Second Test (Table 4)): 1 nM | Potency relative to Comparative Example 1 (higher = more potent) [4]: 300

O=C(CCNCc1ccccc1)N1CCc2nc(SC3CCC3)n(CC3CCC3)c(=O)c2C1 [Example 12, 6-[3-(benzylamino)propanoyl]-3-(cyclobutylmethyl)-2-cyclobutylsulfanyl-7,8-dihydro-4H-pyrido[4,3-d]pyrimidin-4-one trifluoroacetate]
IC50 (Second Test (Table 4)): 1.4 nM | Potency relative to Comparative Example 1 (higher = more potent) [4]: 216

CC(C)[C@H](CNCCC(=O)N1CCc2nc(SC3CCC3)n(-c3ccccc3)c(=O)c2C1)Nc1ccc(Cl)cc1 [Example 40, 6-[3-[[(2R)-2-(4-chloroanilino)-3-methyl-butyl]amino]propanoyl]-2-cyclobutylsulfanyl-3-phenyl-7,8-dihydro-5H-pyrido[4,3-d]pyrimidin-4-one trifluoroacetate]
IC50 [1]: 0.7 nM

O=C(CCNCc1ccc(OC(F)(F)F)cc1)N1CCc2nc(SC3CCC3)n(-c3ccccc3)c(=O)c2C1 [Example 24, 2-cyclobutylsulfanyl-3-phenyl-6-[3-[[4-(trifluoromethoxy)phenyl]methylamino]propanoyl]-7,8-dihydro-5H-pyrido[4,3-d]pyrimidin-4-one trifluoroacetate)]
IC50 (Second Test (Table 4)): 1.4 nM | Potency relative to Comparative Example 1 (higher = more potent) [4]: 221

O=C(CNCc1ccc(C(F)(F)F)cc1)N1CCc2nc(SC3CCC3)n(-c3ccccc3)c(=O)c2C1 [Example 1, 2-cyclobutylsulfanyl-3-phenyl-6-[2-[[4-(trifluoromethyl)phenyl]methylamino]acetyl]-7,8-dihydro-5H-pyrido[4,3-d]pyrimidin-4-one trifluoroacetate]
IC50 (First Test (Table 3)): 4.1 nM | Potency relative to Comparative Example 1 (higher = more potent) [3]: 54

CN(C)c1ccc(CNCCC(=O)N2CCc3nc(SC4CCC4)n(-c4ccccc4)c(=O)c3C2)cc1 [Example 31, 2-cyclobutylsulfanyl-6-[3-[(4-dimethylaminophenyl)methylamino]propanoyl]-3-phenyl-7,8-dihydro-5H-pyrido[4,3-d]pyrimidin-4-one trifluoroacetate]
IC50 [1]: 1.6 nM | Potency relative to Comparative Example 1 (higher = more potent) [2]: 130

O=C(CCNCc1ccc(C(F)(F)F)cc1)N1CCc2nc(SC3CCC3)n(-c3ccccc3)c(=O)c2C1 [Example 19, 2-cyclobutylsulfanyl-3-phenyl-6-[3-[[4-(trifluoromethyl)phenyl]methylamino]propanoyl]-7,8-dihydro-5H-pyrido[4,3-d]pyrimidin-4-one trifluoroacetate]
IC50 (Second Test (Table 4)): 0.9 nM | Potency relative to Comparative Example 1 (higher = more potent) [4]: 352

O=C(CNCCCCOc1ccc(F)cc1)N1CCc2nc(SC3CCC3)n(-c3ccccc3)c(=O)c2C1 [Example 52, 2-cyclobutylsulfanyl-6-[2-[4-(4-fluorophenoxy)butylamino]acetyl]-3-phenyl-7,8-dihydro-5H-pyrido[4,3-d]pyrimidin-4-one trifluoroacetate]
IC50 [1]: 1.7 nM | Potency relative to Comparative Example 1 (higher = more potent) [2]: 158

COc1ccccc1CNCCC(=O)N1CCc2nc(SC3CCC3)n(-c3ccccc3)c(=O)c2C1 [Example 17, 2-cyclobutylsulfanyl-6-[3-[(2-methoxyphenyl)methylamino]propanoyl]-3-phenyl-7,8-dihydro-5H-pyrido[4,3-d]pyrimidin-4-one trifluoroacetate]
IC50 (Second Test (Table 4)): 2.1 nM | Potency relative to Comparative Example 1 (higher = more potent) [4]: 148
